Test results taken from US9359341B2, “Aldehyde derivative of substitute oxazolidinones” (WANBURY LTD., priority 2012, dated 2016).
Where two headings read alike, the source gives them in different places.

What was measured:
[1] = Anticoagulant activity (PT, APTT) in human plasma; conditions: PT and APTT, 0.1 to 1.0 μg/mL
Procedure: The anticoagulant action of the test substance (compound formula-B) and rivaroxaban was determined in vitro using human plasma. The human plasma used for this experiment was separated from the blood collected in sodium citrate as anticoagulant. The prothrombin time (PT) was determined by using a commercial test kit (Neoplastin from Stagid) and APTT was determined using (Synthasil kit by IL). […] Coagulation was then started by addition of thromboplastin, and time when coagulation occurred was determined. The concentration of test substance which effected a doubling of prothrombin time was determined.

[2] = target: CYP1A2 (Homo sapiens (Human), UniProt P05177); assay: CYP inhibition assay; assay type: in vitro ADME; conditions: pooled human liver microsomes; extrapolated IC50 derived from 3 μM; read-out: IC50 (μM) of CYP isoforms, 1A2
Procedure: (§1) The ability of substances to inhibit CYP1A2, CYP2C9, CYP2D6, CYP2C19, CYP2J2 and CYP3A4 in humans was investigated with pooled human liver microsomes as enzyme source in the presence of standard substrates (see below) which form CYP-isoform-specific metabolites.
(§2) Standard incubation mixtures comprise NADPH and substrates in 100 mM phosphate buffer (pH 7.4) in a total volume of 200 μl. Test compound are dissolved in acetonitrile. Incubated with pooled human liver microsomes at 37° C. for a defined time. The reactions are stopped by adding 100 μl of acetonitrile in which a suitable internal standard is always present. Precipitated proteins are removed by centrifugation, and the supernatants analyzed by LC-MS/MS.

[3] = target: CYP3A4 (Homo sapiens (Human), UniProt P08684); assay: CYP inhibition assay; assay type: in vitro ADME; conditions: pooled human liver microsomes; extrapolated IC50 derived from 3 μM; read-out: IC50 (μM) of CYP isoforms, 3A4
Procedure: as §1, §2

[4] = In vitro liver microsomal stability assay (human); assay type: in vitro ADME; conditions: human liver microsomes
Procedure: Liver microsomal stability assays are conducted at 1 mg per mL liver microsome protein with an NADPH in phosphate buffer (100 mM, pH 7.4). Test compounds (compound of formula B of the invention) are prepared as solutions in 20% methanol-water and added to the assay mixture (final assay concentration 1 μM) and incubated at 37° C. Aliquots (100.μ·L) are taken out at times 0, 15, and 30 minutes, and diluted with ice cold acetonitrile containing IS (200.mu·L) to stop the reactions. Samples are centrifuged at 10,000 RPM for 5 minutes to precipitate proteins. Supernatants are transferred to micro centrifuge tubes and stored at −20° C. for analysis of LC/MS/MS. The percent parent remaining of the test substance is calculated as Ratio of peak area at each time point to peak area ratio at zero min, multiplied by 100. The compound formula (B) is converted to Rivaroxaban in microsomal assay.

[5] = Permeability in caco2 system; assay type: in vitro ADME; conditions: human, Caco-2, caco2 system
[6] = test system: caco2 system; assay: Permeability in caco2 system; assay type: in vitro ADME; conditions: caco2 system
[7] = Intravenous and oral excretion profile in Wistar rats; assay type: in vivo
Procedure: On the day before administration of the substance, a catheter for obtaining blood is implanted in the jugular vein of the experimental animals (male Wistar rats, body weight 200-250 g) under Isoflurane. anesthesia.
Urine and faeces are taken collected from metabolic cages over the course of 144 h after administration of the substance. The administration volume is 10 ml/kg for oral and 1 ml/kg for IV in male Wistar rats. Intravenous administration is via a formulation of 2% N—N Dimethyl acetamide/ethanol 10%/PEG400 (30%)/water for IV injection (58%) and via Tween80/PEG400/sterile water in the case of oral administration. Urine and faeces collection is 0-4, 4-8, 8-24, 24-48, 48-72, 72-96, 96-120, 120-144 in the case of IV and for oral administration.
Urine and faeces was processed and IS containing Acetonitrile is added to a defined urine/faeces and precipitated. After centrifugation, compound formula (B) and, where appropriate, known cleavage products of the compound formula (B) in the supernatant are determined quantitatively using a suitable LC/MS-MS method.
The measured urine and faeces concentrations are used to calculate parameters of the test substance and of the active ingredient compound (A) liberated there from, such as AUC and Cmax.
Acetonitrile containing IS is added to the study samples, calibration samples and QCs, and the protein is precipitated using acetonitrile. Vortexed and centrifuged and the supernatant is injected by LC-MS/MS (API 4000, AB Sciex). Chromatographic separation is carried out on an Shimadzu UFLC. The injection volume is 10 μl. The separation column used is a Phenomenex Gemini NX 4.6×5μ. 100 mm, adjusted to a temperature of 30° C. A binary mobile phase gradient at 800.mu·l/min is used (A: 0.1% formic acid in water, B: acetonitrile: API 4000, ESI Agilent 1100 column: Gemini Nx 100 mm×4.6 mm 5.μ; column temperature: 30° C.; eluent A: 0.1% formic acid in water, eluent B: acetonitrile; gradient: 0-2.5 min 95% A, 5% B; 2.5-2.6 min 5% A, 95% B; 2.6-4.2 min 95% A, 5% B; flow rate: 0.8 ml/min; ESI. Q1:464.098, Q3:144.255 The temperature of the Turbo V ion source is 500° C. The following MS instrument parameters are used: curtain gas 20 units, ion spray voltage 5 kV, gas 1 50 units gas 2 50 units, CAD gas 6 units. The substances are quantified by peak heights or areas using extracted ion chromatograms of specific MRM experiments.

[8] = In vitro stability in rat plasma; assay type: in vitro ADME; conditions: conversion to rivaroxaban seen from zero min
Procedure: The final concentration of the test compound in the assay is 5 micromolar. […] C. The 100 microliters of aliquot at time point was removed and diluted with ice cold acetonitrile containing IS (200.mu·L) to stop the reactions. Samples are centrifuged at 10,000 RPM for 5 minutes to precipitate proteins. Supernatants are transferred to micro centrifuge tubes and stored at −20° C. for analysis of LC/MS/MS. The percent parent remaining of the test substance is calculated as ratio of peak area at each time point to peak area ratio at zero min, multiplied by 100.
API 4000, ESI Agilent 1100 column: Gemini Nx 100 mm×4.6 mm 5.1; column temperature: 30° C.; eluent A: 0.1% formic acid in water, eluent B: acetonitrile; gradient: 0-2.5 min 95% A, 5% B; 2.5-2.6 min 5% A, 95% B; 2.6-4.2 min 95% A, 5% B; flow rate: 0.8 ml/min; ESI. Q1:464.098, Q3:144.255

Sequence of CYP3A4 (P08684 whole entry, canonical isoform): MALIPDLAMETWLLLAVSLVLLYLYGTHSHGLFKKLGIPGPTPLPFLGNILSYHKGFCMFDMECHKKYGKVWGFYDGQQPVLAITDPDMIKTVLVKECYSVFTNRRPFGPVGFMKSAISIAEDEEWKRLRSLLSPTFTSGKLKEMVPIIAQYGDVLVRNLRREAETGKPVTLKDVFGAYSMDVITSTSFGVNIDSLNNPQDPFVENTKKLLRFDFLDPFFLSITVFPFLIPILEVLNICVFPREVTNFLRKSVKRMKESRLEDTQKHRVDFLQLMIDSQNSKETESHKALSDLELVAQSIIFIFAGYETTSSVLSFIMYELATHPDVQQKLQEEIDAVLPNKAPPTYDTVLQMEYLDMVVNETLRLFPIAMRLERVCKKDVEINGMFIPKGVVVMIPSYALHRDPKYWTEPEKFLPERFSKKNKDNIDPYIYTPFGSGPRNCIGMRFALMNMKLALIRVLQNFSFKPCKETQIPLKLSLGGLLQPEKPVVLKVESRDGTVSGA
Sequence of CYP1A2 (P05177 whole entry, canonical isoform): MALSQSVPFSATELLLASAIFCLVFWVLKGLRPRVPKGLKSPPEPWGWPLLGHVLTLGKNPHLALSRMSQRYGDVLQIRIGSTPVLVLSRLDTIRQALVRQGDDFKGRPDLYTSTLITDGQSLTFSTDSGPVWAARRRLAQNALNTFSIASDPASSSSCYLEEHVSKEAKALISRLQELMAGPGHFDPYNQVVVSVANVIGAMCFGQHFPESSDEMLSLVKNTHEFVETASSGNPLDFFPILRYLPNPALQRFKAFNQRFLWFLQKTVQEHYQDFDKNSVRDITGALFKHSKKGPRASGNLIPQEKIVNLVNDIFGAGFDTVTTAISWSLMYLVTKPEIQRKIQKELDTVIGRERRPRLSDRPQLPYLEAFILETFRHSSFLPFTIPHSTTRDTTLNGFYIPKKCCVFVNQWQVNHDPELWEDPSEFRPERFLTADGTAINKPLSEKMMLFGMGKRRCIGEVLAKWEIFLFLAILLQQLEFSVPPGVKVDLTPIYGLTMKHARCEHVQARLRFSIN

For `O=CN(C[C@H]1CN(c2ccc(N3CCOCC3=O)cc2)C(=O)O1)C(=O)c1ccc(Cl)s1` [Compound formula B, 5-chloro-N-formyl-N-({(5S)-2-oxo-3-[4-(3-oxomorpholin-4-yl)phenyl]-1,3-oxazolidin-5-yl}methyl)thiophene-2-carboxamide], the anticoagulant activity [1] was “significant anticoagulant activity”, the IC50 [2] was 1.4 µM and the IC50 [3] was 5.7 µM. The “Observation (metabolism; for Test Product: of the formed rivaroxaban)” value [4] was “stable in human”, the “amount of test product detected” value ([4]; metabolised to rivaroxaban from zero min) was “Neglible amount” and the Papp ([5]; read-out: Interpretation: permeability, classification based on Papp) was over 200 nm/s. The Papp ([5]; read-out: Papp A > B) was 174 nm/s, the Papp ([5]; read-out: Papp B > A) was 403 nm/s and the “Interpretation: Pgp substrate (efflux of >2)” value [6] was “observed to be a Pgp substrate”. The “Mean (ng/G) Faeces” value ([7]; IV 1 mg/Kg, rivaroxaban in faeces, 144 h) was “BLQ”, the “Mean (ng) Urine” value ([7]; IV 1 mg/Kg, rivaroxaban in urine, 120 h) was “BLQ” and the “amount of rivaroxaban present in faeces as compared to rivaroxaban alone” value ([7]; Wistar rats) was “lesser amount of rivaroxaban present in faeces”. For the same compound, the “detectability of test substance in urine and faeces” value ([7]; after i.v. administration, at the first measurement point) was “no longer detectable in urine and faeces” and the “Conversion: amount of test product detected” value [8] was “min. Neglible”.
